Experimental data as given in patent publication US7767789B2, “Truncated proteins as cancer markers” (University Hopitals of Cleveland, priority 2005, dated 2010).
Entries after “also recorded” stand apart in the source; their conditions may differ.

What was measured:
Type in all cases: cell-based, human
CaSki cells [1] = assay: DNA synthesis by [3H]thymidine incorporation; conditions: 0.2 nM EGF, 2 nM epinephrine
Description: The experiments used CaSki cells, a line of transformed cervical epithelial cells that were obtained from the ATCC (Manassas, Va.) and were previously characterized as stably expressing phenotypic characteristics of human cervical epithelial cells. Cells were grown and subcultured in RPMI-1640 supplemented with 8% fetal calf serum, 0.2% NaHCO3, nonessential amino acids (0.1 mM), L-glutamine (2 mM), penicillin (100 U/ml), streptomycin (100 μg/ml), and gentamycin ([…]) at 37° C. in a […] humidified incubator. Cultures were routinely tested for mycoplasma. Preliminary experiments were conducted on cells plated on culture plates, and definitive experiments were repeated on cells plated on filters. Filters were either Anocell (Anocell-10, Oxon, UK, obtained through Sigma Chemicals, St. Louis, Mo.), Transwell (Costar Corporation, Cambridge, Mass.), or Millicell-CM (Millipore, Bedford, Mass.). Filters were coated on their upper (luminal) surface with 3-5 μg/cm collagen type IV and incubated at 37° C. overnight. […] DNA synthesis DNA synthesis was measured by [^3H]thymidine incorporation. […] The radioactivity [dpm/mg protein, determined by Bio-Rad (Hercules, Calif.) Protein Assay solution] of triplicated samples was determined by scintillation counting (LS1801 scintillation counter; Beckman, Fullerton, Calif.).

CaSki cells [2] = assay: Number of CaSki cells in culture; conditions: serum-free; 0.2 nM EGF, 2 nM epinephrine, or both, 24 h
Description: Near-confluent cultures of CaSki cells on filters were shifted for 14 hours to serum-free medium supplemented with 1% BSA and were treated in the same medium with 0.2 nM EGF, 2 nM epinephrine, or both for an additional 24 h. At the completion of treatments, cells were harvested off the filters and counted.

CaSki cells [3] = assay: DNA solubilization assay (apoptosis)
Description: Twenty-four hours before the end of the experiment, cells were labeled with [^3H]thymidine (specific activity, 93 Ci/mmol; 5 μCi/1×10^6 cells) for 16 h. The medium was removed, and cells were washed three times with fresh medium lacking [^3H]thymidine and were incubated in the same medium for an additional 6 h. At the end of incubation, the supernatant was stored, and cells were lysed in 0.5 ml lysis buffer (10 mM Tris-HCl, pH 7.5; plus 1 mM EDTA-0.2% Triton X-100) for 1 h at 4° C. The intact chromatin was separated from the fragmented DNA by 5 min centrifugation at 4° C. in Eppendorf microcentrifuge at 12,000×g. The supernatant (lysate) was stored, while the pellet was resuspended in 0.5 ml of 1% sodium dodecyl sulfate (SDS). The radioactivity contained in the supernatants, lysates; and pellets was counted in a scintillation counter, and DNA fragmentation was calculated as: [% Solubilized DNA]=([cpm supernatant+cpm lysates]/[cpm supernatant+cpm lysate+cpm pellet])×100.

## EGF: Human recombinant EGF, epidermal growth factor
CaSki cells [1]
  [3H]thymidine incorporation: increased [^3H]thymidine incorporation
CaSki cells [2]
  number of cells in culture: increased the number of cells in culture
CaSki cells [3]; pretreatment 24 h: 1 μM zinterol or 0.2 nM EGF
  effect on TNFα-induced increase in DNA solubilization: no significant effect
CaSki cells [3]; pretreatment: EGF 0.2 nM, zinterol/terbutaline 1 μM 24 h, forskolin 10 μM 14 h with IBMX, isoproterenol 10 μM, phenylephrine 100 μM
  effect on BzATP-induced apoptosis (DNA solubilization): little effect; also recorded: no significant effect
